From ChEMBL document CHEMBL1201862, “PubChem BioAssay data set” (2004) come the findings set out here.

Test systems include HOP-92; A549; LOX IMVI; KM12; HOP-62; SN12C; ACHN; RXF 393; SW-620; MDA-MB-435; SK-OV-3; A498; OVCAR-4; UACC-257; NCI/ADR-RES; PC-3; HT-29; HL-60; UACC-62; Malme-3M.
Experiment in all cases: inhibition of tumour cell growth, NCI panel, 48 h

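These data come from cells grown in 96-well plates and exposed to compound for 48 hours at five concentrations. GI50 is the concentration that inhibits growth by half.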 Calls of active or inactive are those of the source. Rule as the data show it: active = GI50 up to about 1.1 µM and inactive = higher. Some results are limits rather than exact numbers.

Consider `Brc1cccc(C2(CCCC3(c4cccc(Br)n4)OCCO3)OCCO2)n1`, for which the GI50 with HOP-92, with A549, in the experiment on LOX IMVI, in the experiment with KM12, in the experiment with HOP-62 and in the experiment with SN12C was > 100 µM (inactive) in each case. Further, the GI50 with ACHN is > 100 µM (inactive); with RXF 393 it was 72.4 µM (inactive); in the experiment on SW-620, > 100 µM (inactive); in the experiment on MDA-MB-435, > 100 µM (inactive); in the experiment with SK-OV-3, > 100 µM (inactive); with A498, > 100 µM (inactive). Also, the GI50 with OVCAR-4, in the experiment with UACC-257, in the experiment on NCI/ADR-RES and in the experiment on PC-3 was > 100 µM (inactive) throughout.

Take `CCOC(O)(NC(=O)C(C(F)(F)F)C(F)(F)F)C(F)(F)F` (stereo not given): the GI50 with HT-29, in the experiment with A549, with LOX IMVI, in the experiment on SN12C, in the experiment on ACHN and in the experiment on RXF 393 was > 100 µM (inactive) throughout. Further, the GI50 in the experiment on SW-620, in the experiment with MDA-MB-435, in the experiment on A498, with UACC-257, in the experiment with HL-60 and in the experiment with NCI/ADR-RES was > 100 µM (inactive) throughout. The GI50 in the experiment with PC-3 was > 100 µM (inactive).

In the case of `CCOC(=O)c1c(-c2ccc(Br)cc2)ccn1C`, the GI50 in the experiment with HT-29, in the experiment with A549, in the experiment with LOX IMVI, in the experiment on KM12, in the experiment with HOP-62 and in the experiment on SN12C was > 10 µM (inactive) in each case. Also, the GI50 in the experiment on ACHN was > 10 µM (inactive); in the experiment with RXF 393, 4.65 µM (inactive); in the experiment with SW-620, > 10 µM (inactive); in the experiment on MDA-MB-435 it was > 10 µM (inactive); in the experiment with SK-OV-3 it was > 10 µM (inactive); in the experiment with UACC-62 it was > 10 µM (inactive). The GI50 with A498, in the experiment with OVCAR-4, with UACC-257, with HL-60, in the experiment with NCI/ADR-RES and with PC-3 was > 10 µM (inactive) in each case. Further, the GI50 in the experiment on Malme-3M was > 10 µM (inactive).

`Cc1cc2nc3c(N)nn(CCN(C)C)c3nc2cc1C`: the GI50 in the experiment with HT-29 is 27.4 µM (inactive); with HOP-92, 38.5 µM (inactive); with A549 it was 31.9 µM (inactive); in the experiment with LOX IMVI, 25.9 µM (inactive); with KM12, 45.5 µM (inactive); in the experiment on HOP-62, 26.4 µM (inactive). Moreover, the GI50 was 36.7 µM (inactive) in the experiment on SN12C; 28.4 µM (inactive) in the experiment on ACHN; 30.4 µM (inactive) with RXF 393; 38.7 µM (inactive) in the experiment on SW-620; 37.9 µM (inactive) in the experiment on MDA-MB-435; 45.2 µM (inactive) in the experiment with SK-OV-3. Also, the GI50 in the experiment with UACC-62 is 39.5 µM (inactive); in the experiment on A498, 38.3 µM (inactive); with OVCAR-4, 40.6 µM (inactive); with UACC-257, 41.7 µM (inactive); with NCI/ADR-RES, 33.3 µM (inactive); in the experiment on PC-3, 44.3 µM (inactive). For the same molecule, the GI50 in the experiment on Malme-3M is 34.2 µM (inactive).

Turning to `Cn1c(O)c(C2=Nc3ccccc3C2=O)c2ccccc21`, the GI50 in the experiment on HT-29, in the experiment on HOP-92, with A549, in the experiment with LOX IMVI, with KM12 and in the experiment with HOP-62 was > 100 µM (inactive) in each case. Also, the GI50 in the experiment on SN12C, with ACHN, with RXF 393, in the experiment with SW-620, in the experiment on MDA-MB-435 and with SK-OV-3 was > 100 µM (inactive) in each case. The GI50 in the experiment with UACC-62, in the experiment with A498, with OVCAR-4, with UACC-257, with NCI/ADR-RES and with PC-3 was > 100 µM (inactive) throughout. The GI50 in the experiment on Malme-3M is > 100 µM (inactive).

In the case of `CN(C)C(=O)OC1=CC2CCC(C1)N2C` (stereo not given), the GI50 was > 100 µM (inactive) with HT-29; > 100 µM (inactive) with HOP-92; 70.8 µM (inactive) with A549; 61.4 µM (inactive) in the experiment on LOX IMVI; > 100 µM (inactive) with KM12; > 100 µM (inactive) with HOP-62. Also, the GI50 in the experiment with SN12C is > 100 µM (inactive); with ACHN, 82 µM (inactive); with RXF 393 it was > 100 µM (inactive); in the experiment on SW-620, > 100 µM (inactive); with MDA-MB-435, > 100 µM (inactive); in the experiment with SK-OV-3, > 100 µM (inactive). Moreover, the GI50 was > 100 µM (inactive) in the experiment on UACC-62; > 100 µM (inactive) in the experiment on A498; > 100 µM (inactive) with OVCAR-4; > 100 µM (inactive) with UACC-257; 91.6 µM (inactive) in the experiment with NCI/ADR-RES; 97.5 µM (inactive) in the experiment with PC-3. Also, in the experiment on Malme-3M, the GI50 was > 100 µM (inactive).

Regarding `O=C(c1ccco1)C1CC(c2ccc3ccccc3c2O)=NN1` (stereo not given), the GI50 with HT-29 was 86.5 µM (inactive); in the experiment on HOP-92 it was > 100 µM (inactive); in the experiment with A549 it was 47 µM (inactive); in the experiment with KM12, > 100 µM (inactive); with HOP-62, > 100 µM (inactive); with SN12C, > 100 µM (inactive). The GI50 with ACHN was > 100 µM (inactive); in the experiment with RXF 393, > 100 µM (inactive); with SW-620, 84.1 µM (inactive); in the experiment with MDA-MB-435 it was 56.6 µM (inactive); in the experiment on SK-OV-3, > 100 µM (inactive); with UACC-62, > 100 µM (inactive). Besides, the GI50 in the experiment with A498 is > 100 µM (inactive); in the experiment on OVCAR-4, > 100 µM (inactive); in the experiment with UACC-257 it was 62.2 µM (inactive); with NCI/ADR-RES, 91.4 µM (inactive); in the experiment with PC-3, 70.8 µM (inactive); in the experiment with Malme-3M, > 100 µM (inactive).

Consider `CC(C)CNC(=O)Cn1c2c(c3ccccc31)CCCC2`, for which the GI50 is > 100 µM (inactive) in the experiment with HT-29; 43.8 µM (inactive) in the experiment with HOP-92; 49.7 µM (inactive) in the experiment on A549; 39.5 µM (inactive) in the experiment with LOX IMVI; 54.3 µM (inactive) with HOP-62; > 100 µM (inactive) with SN12C. Further, the GI50 is 33 µM (inactive) in the experiment with ACHN; > 100 µM (inactive) in the experiment on SW-620; 73.3 µM (inactive) in the experiment with MDA-MB-435; 23.7 µM (inactive) with SK-OV-3; 50.1 µM (inactive) with UACC-62; 22.2 µM (inactive) with A498. Further, the GI50 in the experiment with OVCAR-4 was 35.4 µM (inactive); in the experiment on UACC-257, > 100 µM (inactive); with HL-60, 34 µM (inactive); in the experiment with NCI/ADR-RES it was 59.7 µM (inactive); in the experiment with PC-3 it was 58.5 µM (inactive); with Malme-3M it was 82.4 µM (inactive).

Regarding `CC1CN=C(Nc2ccc(F)c(Cl)c2)S1` (stereo not given), the GI50 in the experiment with HT-29 was > 100 µM (inactive); in the experiment on HOP-92, 28.9 µM (inactive); in the experiment on A549 it was 88.9 µM (inactive); with LOX IMVI, 86.7 µM (inactive); in the experiment on KM12, > 100 µM (inactive); in the experiment on HOP-62 it was > 100 µM (inactive). The GI50 in the experiment with ACHN was > 100 µM (inactive); in the experiment with RXF 393, 37.6 µM (inactive); in the experiment on SW-620, > 100 µM (inactive); in the experiment with MDA-MB-435 it was > 100 µM (inactive); with SK-OV-3 it was > 100 µM (inactive); with UACC-62, > 100 µM (inactive). Besides, the GI50 is 62.8 µM (inactive) in the experiment with A498; 86.5 µM (inactive) with UACC-257; 29.9 µM (inactive) in the experiment with HL-60; 42.5 µM (inactive) in the experiment on NCI/ADR-RES; 72.4 µM (inactive) in the experiment on PC-3; > 100 µM (inactive) in the experiment with Malme-3M.

With `CCOC1=NC(C(F)(F)F)(C(F)(F)F)N=C(/N=C(/N)N(C)C(C(C)C)P(=O)(OC(C)C)OC(C)C)O1` (stereo not given), the GI50 in the experiment with HT-29 was > 100 µM (inactive); with A549, > 100 µM (inactive); with LOX IMVI, 81.5 µM (inactive); with KM12 it was 78.2 µM (inactive); in the experiment on HOP-62, > 100 µM (inactive); with SN12C it was 76 µM (inactive). Besides, the GI50 with ACHN was 44.7 µM (inactive); with RXF 393, 41 µM (inactive); with SW-620, 49.5 µM (inactive); with MDA-MB-435, > 100 µM (inactive); in the experiment with SK-OV-3, > 100 µM (inactive); in the experiment with UACC-62 it was 54.7 µM (inactive). Moreover, the GI50 was > 100 µM (inactive) in the experiment on A498; 70.3 µM (inactive) in the experiment on UACC-257; 27.7 µM (inactive) in the experiment with HL-60; 31.3 µM (inactive) in the experiment with NCI/ADR-RES; > 100 µM (inactive) with PC-3; 54.1 µM (inactive) in the experiment on Malme-3M.

As to `NCCCC[C@H](N)C(=O)Nc1ccc(-c2nc3ccccc3s2)cc1Cl`, the GI50 in the experiment with HT-29 is 6.79 µM (inactive); in the experiment with HOP-92 it was 18.8 µM (inactive); in the experiment on A549, 2.96 µM (inactive); in the experiment with LOX IMVI, 1.36 µM (inactive); with KM12, 2.97 µM (inactive); in the experiment on HOP-62 it was 13.2 µM (inactive). Besides, the GI50 with SN12C was 14.6 µM (inactive); with ACHN, 13.4 µM (inactive); in the experiment with RXF 393 it was 12.4 µM (inactive); in the experiment on SW-620, 11.5 µM (inactive); in the experiment on MDA-MB-435, 4.9 µM (inactive); in the experiment with SK-OV-3, 16.3 µM (inactive). For the same molecule, the GI50 in the experiment on UACC-62 was 14.6 µM (inactive); in the experiment on A498 it was 0.149 µM (active); with UACC-257, 14.1 µM (inactive); with NCI/ADR-RES, 16.5 µM (inactive); in the experiment on PC-3, 14.9 µM (inactive); with Malme-3M, 15.1 µM (inactive).
